What was measured:
[1] = system: hyperuricemia; settings: clinical studies; cited from earlier work
[2] = system: spontaneously hypertensive rat (SHR); test: Plasma uric acid (uricemia) in potassium oxonate-induced hyperuricemia in spontaneously hypertensive rats; type: in vivo; settings: for Uricemia: SHR + K oxonate 250 mg/kg IP, 4 hours after last dose; for Δ Uricemia: SHR + K oxonate, difference vs Control + K oxonate; for Effect on hyperuricemia values (in words): oral, one week before potassium oxonate, 1-3-10 mg/kg, SHR
Protocol: (§1) Pharmacological activity of febuxostat and olmesartan medoxomil, alone or in association, was assessed in an experimental model of hyperuricemia in spontaneously hypertensive rat (SHR, Harlan Laboratories, Udine, Italy). Systolic pressure (SBP) was measured in non-anesthesized animals by means of a tail cuff sphygmomanometer (Blood Pressure Analysis System BP-2000, Visitech Systems, USA) equipped with an automatic system for data acquisition and processing.
(§2) All animals were preconditioned daily for 2 weeks to accustom them to instrumental measuring of the pressure before starting the test. Hyperuricemia was induced with administration of potassium oxonate (250 mg/kg IP, 2 hours after the last dose of drugs and 2 hours before the test), an uricase inhibitor capable of inducing experimental hyperuricemia. Plasma levels of uric acid were measured with a standard colorimetric enzymatic method. Febuxostat and/or olmesartan were administered orally once per day for 7 days, by gavage, at the doses of 1-3-10 mg/kg.
(§3) Parameters measured in conscious rats were systolic pressure (SBP) and plasma uric acid/urate levels (uricemia), as well as basal values, both after one week of treatment and 2 hours after administration of potassium oxonate. Blood was collected from a tail vein.
(§4) Uricemia and systolic pressure values were recorded 4 hours after the last dose of drugs or vehicle. Potassium oxonate (250 mg/kg IP) was administered 2 ore before the test. Each value is the average of 7-13 tests.

[3] = system: spontaneously hypertensive rat (SHR); test: Systolic pressure (SBP) by tail cuff sphygmomanometer in conscious spontaneously hypertensive rats; type: in vivo; settings: for SBP / Δ SBP: SHR + K oxonate; for SBP: 4 hours after last dose; for Δ SBP: difference vs Control + K oxonate; for Effect on systolic pressure (in words): 1-3-10 mg/kg per os, daily for 1 week, SHR
Protocol: as §1, §2, §3, §4

[4] = system: 30 hypertensive subjects; settings: monotherapy, only teenagers; cited from earlier work
[5] = 1 mg/kg day per os for one week
[6] = 3 mg/kg day per os for one week
[7] = 10 mg/kg day per os for one week

Row | SMILES | Reduction of hyperuricemia compared with allopurinol (in words) [1] | Uricemia [2, 5] [mg/dL] | Δ Uricemia [2, 5] [mg/dL] | Uricemia [2, 6] [mg/dL] | Δ Uricemia [2, 6] [mg/dL] | Uricemia [2, 7] [mg/dL] | Δ Uricemia [2, 7] [mg/dL] | Effect on hyperuricemia values (in words) [2] | SBP [3, 5] [mmHg] | Δ SBP [3, 5] [mmHg] | SBP [3, 6] [mmHg] | Δ SBP [3, 6] [mmHg] | SBP [3, 7] [mmHg] | Δ SBP [3, 7] [mmHg] | Effect on systolic pressure (in words) [3] | Anti-hypertensive effect (in words) [4]
1 | Cc1nc(-c2ccc(OCC(C)C)c(C#N)c2)sc1C(=O)O [Febuxostat, febuxostat] | reduce hyperuricemia more effectively than allopurinol | 1.02 ± 0.07 | -0.15 | 0.78 ± 0.06 | -0.39 | 0.49 ± 0.05 | -0.68 | reduced in a significant and dose-dependent manner the hyperuricemia values | 234 ± 19 | −5 | 229 ± 24 | −10 | 228 ± 21 | −11 | slight inhibitory effect on systolic pressure | 
2 | CCCc1nc(C(C)(C)O)c(C(=O)OCc2oc(=O)oc2C)n1Cc1ccc(-c2ccccc2-c2nnn[nH]2)cc1 [Olmesartan, olmesartan medoxomil] |  | 1.16 ± 0.11 | -0.01 | 1.10 ± 0.12 | -0.07 | 1.08 ± 0.07 | -0.09 | weakly active | 217 ± 14 | −22 | 202 ± 10 | −37 | 180 ± 11 | −59 | reduced systolic pressure in a dose-dependent manner | 
3 | Oc1ncnc2[nH]ncc12 [allopurinol] |  |  |  |  |  |  |  |  |  |  |  |  |  |  |  | has shown an anti-hypertensive effect
